Key:
[1] = molecular target: T1, Endothelin receptor type B (Homo sapiens, UniProt P24530)
T1 sequence (P24530 whole entry): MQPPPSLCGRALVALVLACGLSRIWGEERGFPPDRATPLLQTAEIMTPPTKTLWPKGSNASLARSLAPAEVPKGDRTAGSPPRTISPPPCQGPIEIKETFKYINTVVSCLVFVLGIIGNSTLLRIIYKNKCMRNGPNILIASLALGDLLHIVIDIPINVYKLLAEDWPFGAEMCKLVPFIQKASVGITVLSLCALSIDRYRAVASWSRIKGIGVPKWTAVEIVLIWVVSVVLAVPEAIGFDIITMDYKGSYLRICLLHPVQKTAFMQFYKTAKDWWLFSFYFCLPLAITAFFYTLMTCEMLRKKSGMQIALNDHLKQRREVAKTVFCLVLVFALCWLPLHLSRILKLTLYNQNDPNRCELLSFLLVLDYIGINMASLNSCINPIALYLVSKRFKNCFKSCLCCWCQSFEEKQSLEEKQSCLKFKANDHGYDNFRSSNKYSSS

Endothelin-1 receptor = molecular target: T2, Endothelin-1 receptor (Homo sapiens, UniProt P25101)
T2 sequence (P25101 whole entry): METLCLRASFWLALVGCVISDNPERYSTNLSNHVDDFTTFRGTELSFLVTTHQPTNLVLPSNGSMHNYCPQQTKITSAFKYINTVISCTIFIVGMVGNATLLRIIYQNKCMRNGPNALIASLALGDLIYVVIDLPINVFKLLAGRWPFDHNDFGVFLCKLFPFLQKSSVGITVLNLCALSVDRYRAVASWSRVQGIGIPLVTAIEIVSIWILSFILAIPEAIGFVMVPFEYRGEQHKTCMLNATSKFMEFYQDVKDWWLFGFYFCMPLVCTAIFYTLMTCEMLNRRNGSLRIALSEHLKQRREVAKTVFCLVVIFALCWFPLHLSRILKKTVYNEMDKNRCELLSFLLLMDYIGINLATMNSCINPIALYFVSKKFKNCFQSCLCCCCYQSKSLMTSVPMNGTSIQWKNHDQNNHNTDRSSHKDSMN

Row | Structure (SMILES) | Ki [1] [µM] | Ki (Endothelin-1 receptor) [µM]
1 | CCCOc1ccc2c(c1)[C@@H](c1ccc(OC)cc1OCC(=O)O)[C@H](C(=O)O)[C@H]2c1ccc2c(c1)OCO2 [(1S,2R,3S)-1-Benzo[1,3]dioxol-5-yl-3-(2-carboxymethoxy-4-methoxy-phenyl)-5-propoxy-indan-2-carboxylic acid] | 0.021 | 0.0004
2 | CCCOc1ccc2c(c1)[C@@H](c1ccc(OC)cc1OCCO)[C@H](C(=O)O)[C@H]2c1ccc2c(c1)OCO2 [Enrasentan] | 0.15 | 0.0015
3 | CCCCn1ncc(/C=C(\Cc2cc3c(cc2OC)OCO3)C(=O)O)c1-c1ccc(OC)cc1OCc1ccccc1C(=O)O [SB-234551] | 0.5 | 0.00013
